Experimental data as given in US20230014352A1, “INHALED STATINS AS BRONCHODILATORS TO IMPROVE LUNG FUNCTION IN RESPIRATORY DISEASES” (priority 2019, published 2023).
Entries after “also recorded” stand apart in the source; their conditions may differ.

Columns and labels:
[1] = test system: precision-cut human lung slices; assay: Histamine-induced bronchoconstriction in precision-cut human lung slices, pitavastatin and isoproterenol; conditions: 5 μM, 24 hours
Method: The experiment was performed under serum-deprived media conditions, n=3-7 airways per group. Changes in lumen narrowing were reported as percentage changes (±SEM) of the pre-treatment state (see FIG. 13). The absolute value of lumen airway area was not statistically different between the pitavastatin and control groups at the pre-treatment state.

primary ASM cells = assay: Potentiation of isoproterenol relaxation of histamine-induced ASM contraction; type: cell-based, human; conditions: FIG. 17A
Method: Primary ASM cells from a non-asthmatic donor were serum-deprived for 2 days in a tissue culture flask, and then cultured to confluence for an additional 24 hrs in serum-free medium in 96-well traction force measurement plates (3 kPa stiffness). The pre-treatment contractile force was measured as described above. Cells were then treated with either vehicle (PEG400), control (serum-free medium) or Pitavastatin at concentrations of 10^−5 M, 10^−6 M, 10^−7 M, and 10^−8 M, for 24 hrs, and the baseline contractile force measured. ASM cells were then acutely treated with histamine (10 μM) for 30 minutes, and the histamine-induced contractile force was measured. The cells were then treated with isoproterenol (10^−6, 10^−7, 10^−8, 10^−9, and 10^−11 M) for 30 minutes, and the isoproterenol-relaxed ASM contractile force was measured. The percent “histamine contraction” was calculated as the ratio of isoproterenol-relaxed ASM contractile force to histamine-induced contractile force. […] FIG. 17B details the data boxed in FIG. 17A.

airways of C57BL/6 mice = assay: Non-inflammatory methacholine (MCh)-induced hypercontractile mouse model, airway % contraction in precision-cut lung slices; type: in vivo; conditions: intratracheal 5 mg/kg for 5 days, 1 hr prior to each MCh nebulization
Method: In this model, mice were administered nebulized methacholine (MCh) during postnatal maturation of ASM, which causes a hypercontractile phenotype without any induction of inflammatory responses.
All mouse experiments were approved by the Institutional Animal Care and Use Committee at Brigham & Women's Hospital, Harvard Medical School. The methacholine-induced hypercontractile mouse model has been described in K. R. Patel et al., FASEB J (2017) 31(10):4335-46. Briefly, mice (C57BL/6) were exposed to nebulized MCh (30 mg/mL) for 10 min daily between P15 and −20 (5 days). Control mice were administered nebulized normal saline. This establishes the MCh hyper-contractility asthma phenotype, a non-inflammatory model of asthmatic airway hyperresponsiveness AHR. Mice were administered intratracheal (i.t.) pitavastatin (5 mg/kg for five days) or vehicle control for 1 hour before each MCh nebulization. For airway % contraction assays, mouse precision-cut lung slices (PCLS) were stimulated to contract by increasing MCh concentrations (0.1-100 μM). For each measurement, at least n=4 mice were used from 2 independent experiments, and a total of 20-30 airways per lung.

ASM cells = assay: RealTime-Glo Annexin V Apoptosis and Necrosis assay; type: cell-based, human
Method: Lack of apoptosis: Some studies have shown that statins at high enough doses can reduce the viability of vascular smooth muscle cells, epithelial cells, and endothelial cells (S. Ghavami et al., Biochim Biophys Acta (2014) 1843(7):1259-71; T. P. Miettinen et al., Cell Rep (2015) 13(11):2610-20).
RealTime-Glo™ Annexin V Apoptosis and Necrosis assay was performed by growing ASM cells on 96-well white cell culture plate according to the manufacturer's instructions (Promega Inc). […] In this real-time annexin V binding assay, the luminescence signal was detected for apoptosis and necrosis was detected with a fluorescence signal by using a SpectraMax® plate reader. […] (20 μg/mL) was used as a positive control (FIG. 2).

[2] = test system: primary human airway smooth muscle (ASM) cells; assay: Contractile force screening (CFS), basal ASM cell contraction (strain energy); type: cell-based; conditions: donors D1-D6, FIG. 11A

With O=C(O)C[C@H](O)C[C@H](O)/C=C/c1c(C2CC2)nc2ccccc2c1-c1ccc(F)cc1 [pitavastatin] the “interference with the β2-agonist effect of isoproterenol” value [1] was “did not interfere; also recorded: does not interfere”, the “histamine (Hist)-induced bronchoconstriction” value ([1]; histamine 10 μM 15 min, serum-deprived, FIG. 13) was “reduced” and the “effect of isoproterenol on histamine contraction compared to vehicle” value (primary ASM cells; 10^−7 M, 10^−6 M and 10^−5 M pitavastatin 24 hrs, 10^−9 M and 10^−8 M isoproterenol) was “potentiated”. For the same compound, the “degree of relaxation compared to vehicle” value (primary ASM cells; all concentrations of statin, 10^−11 M isoproterenol) was “not substantially different from vehicle”, the “% airway contraction” value (airways of C57BL/6 mice; FIG. 11B) was 14.2% and the “% contraction of airways” value (airways of C57BL/6 mice; PCLS response to 500 nM MCh, FIG. 6) was 7.3%. For the same compound, the “apoptosis and necrosis (cell death)” value (ASM cells) was “no evidence of apoptosis or cell death”, the cellular toxicity (ASM cells) was “did not demonstrate any” and the “ASM contraction in asthmatic and non-asthmatic donor cells” value [2] was “dose-dependently inhibited ASM contraction; also recorded: inhibited ASM contraction dose-dependently”.
